Test results as given in patent US10336709B2, “Lp-PLA2 inhibitors” (ABIDE THERAPEUTICS, INC., priority 2015, dated 2019).

Tests used:
Lp-PLA2 = target: T1, Lp-PLA2 (Mus musculus, UniProt Q60963); assay: In vitro competitive activity-based protein profiling (HT-01 probe, gel band PLA2G7); assay type: biochemical; set-up: Lp-PLA2 % at 100 μM: scale not given here; details: mouse brain membrane proteomes; for IC50: 30 min preincubation at 37° C
T1 construct: Mouse brain membrane proteomes (50 μL, 1.0 mg/mL total protein concentration) were preincubated; from tissue; host or cells: mouse brain membrane fraction
T1 sequence (Q60963 22-440): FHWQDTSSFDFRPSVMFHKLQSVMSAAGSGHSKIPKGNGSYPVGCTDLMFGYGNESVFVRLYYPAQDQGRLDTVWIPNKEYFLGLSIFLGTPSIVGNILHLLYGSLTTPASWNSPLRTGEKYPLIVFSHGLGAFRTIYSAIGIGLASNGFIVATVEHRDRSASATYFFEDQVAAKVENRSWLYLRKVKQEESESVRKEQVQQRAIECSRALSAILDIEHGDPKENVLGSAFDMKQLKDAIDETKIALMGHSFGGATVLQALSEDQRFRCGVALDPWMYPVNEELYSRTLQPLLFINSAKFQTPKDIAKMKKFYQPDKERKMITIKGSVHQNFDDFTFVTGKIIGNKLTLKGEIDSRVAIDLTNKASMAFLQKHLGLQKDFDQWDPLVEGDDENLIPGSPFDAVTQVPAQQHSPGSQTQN
Method: (§1) Compounds are tested to assess their Lp-PLA2 and serine hydrolase activity using the following in vitro assays.
(§2) In Vitro Competitive Activity-Based Protein Profiling
(§3) Mouse brain membrane proteomes (50 μL, 1.0 mg/mL total protein concentration) were preincubated with varying concentrations of inhibitors at 37° C. After 30 min, HT-01 probe (1.0 μL, 50 μM in DMSO) was added and the mixture was incubated for another 30 min at room temperature. Reactions were quenched with SDS loading buffer (15 μL-4×) and run on SDS-PAGE gels. Following gel imaging, serine hydrolase activity was determined by measuring fluorescent intensity of gel bands corresponding to PLA2G7 and ABHD6 using ImageJ 1.49 k software.

ABHD6 = target: T2, ABHD6 (Mus musculus, UniProt Q8R2Y0); assay: In vitro competitive activity-based protein profiling (HT-01 probe, gel band ABHD6); assay type: biochemical; set-up: ABHD6 % at 100 μM: scale not given here; details: mouse brain membrane proteomes; for IC50: 30 min preincubation at 37° C
T2 construct: Mouse brain membrane proteomes (50 μL, 1.0 mg/mL total protein concentration) were preincubated; from tissue; host or cells: mouse brain membrane fraction
T2 sequence (Q8R2Y0 1-336): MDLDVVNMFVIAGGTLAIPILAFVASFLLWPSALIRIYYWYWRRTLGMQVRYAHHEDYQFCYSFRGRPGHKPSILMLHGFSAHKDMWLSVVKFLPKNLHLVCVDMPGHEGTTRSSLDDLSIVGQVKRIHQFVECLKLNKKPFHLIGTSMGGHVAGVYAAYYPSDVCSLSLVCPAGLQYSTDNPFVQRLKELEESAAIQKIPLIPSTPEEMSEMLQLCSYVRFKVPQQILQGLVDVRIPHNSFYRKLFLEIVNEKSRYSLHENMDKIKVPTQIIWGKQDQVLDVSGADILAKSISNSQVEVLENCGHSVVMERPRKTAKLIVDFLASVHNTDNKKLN
Method: as §1, §2, §3

SMILES | IC50 (Lp-PLA2) [nM] | IC50 (ABHD6) [nM] | further results
O=C(ON1C(=O)N[C@@H](Cc2ccc(Cl)cc2)C1=O)N1CCN(c2cccc(C(=O)N3CCCCC3)c2Cl)CC1 [Example 23, (S)-4-(4-chlorobenzyl)-2,5-dioxoimidazolidin-1-yl 4-(2-chloro-3-(piperidine-1-carbonyl)phenyl)piperazine-1-carboxylate] |  |  | Lp-PLA2 % at 100 μM (Lp-PLA2): 50% at 100 μM; ABHD6 % at 100 μM (ABHD6): 50% at 100 μM
NC(=O)c1cccc(N2CCN(C(=O)ON3C(=O)N[C@@H](Cc4ccccc4)C3=O)CC2)c1Cl [Example 18, (S)-4-benzyl-2,5-dioxoimidazolidin-1-yl 4-(3-carbamoyl-2-chlorophenyl)piperazine-1-carboxylate] |  |  | Lp-PLA2 % at 100 μM (Lp-PLA2): 25% at 100 μM; ABHD6 % at 100 μM (ABHD6): 25% at 100 μM
CC(C)[C@@H]1NC(=O)N(OC(=O)N2CCN(c3cccc(C(=O)N4CCCCC4)c3Cl)CC2)C1=O [Example 2, (S)-4-isopropyl-2,5-dioxoimidazolidin-1-yl 4-(2-chloro-3-(piperidine-1-carbonyl)phenyl)piperazine-1-carboxylate] | 100 to 1000 | 100 to 1000 | 
O=C(ON1C(=O)N[C@H](Cc2ccccc2)C1=O)N1CCN(c2cccc(C(=O)N3CCCCC3)c2Cl)CC1 [Example 11, (R)-4-benzyl-2,5-dioxoimidazolidin-1-yl 4-(2-chloro-3-(piperidine-1-carbonyl)phenyl)piperazine-1-carboxylate] | < 100 | < 100 | 
O=C(ON1C(=O)N[C@@H](Cc2ccccc2)C1=O)N1CCN(c2cccc(C(=O)N3CCCC3)c2Cl)CC1 [Example 7, (S)-4-benzyl-2,5-dioxoimidazolidin-1-yl 4-(2-chloro-3-(pyrrolidine-1-carbonyl)phenyl)piperazine-1-carboxylate] | < 100 | < 100 | 
CC(C)[C@H]1NC(=O)N(OC(=O)N2CCN(c3cccc(C(=O)N4CCCC4)c3Cl)CC2)C1=O [Example 4, (R)-4-isopropyl-2,5-dioxoimidazolidin-1-yl 4-(2-chloro-3-(pyrrolidine-1-carbonyl)phenyl)piperazine-1-carboxylate] |  | 100 to 1000 | inhibition at 10 µM (Lp-PLA2): 75%
CC(C)[C@@H]1NC(=O)N(OC(=O)N2CCN(c3cccc(C(=O)N4CCOCC4)c3Cl)CC2)C1=O [Example 3, (S)-4-isopropyl-2,5-dioxoimidazolidin-1-yl 4-(2-chloro-3-(morpholine-4-carbonyl)phenyl)piperazine-1-carboxylate] | 100 to 1000 | 100 to 1000 | 
O=C(ON1C(=O)N[C@@H](Cc2ccccc2)C1=O)N1CCN(c2cccc(C(=O)N3CCOCC3)c2Cl)CC1 [Example 9, (S)-4-benzyl-2,5-dioxoimidazolidin-1-yl 4-(2-chloro-3-(morpholine-4-carbonyl)phenyl)piperazine-1-carboxylate] | < 100 | 100 to 1000 | 
CC(C)[C@H]1NC(=O)N(OC(=O)N2CCN(c3cccc(C(=O)N4CCCCC4)c3Cl)CC2)C1=O [Example 5, (R)-4-isopropyl-2,5-dioxoimidazolidin-1-yl 4-(2-chloro-3-(piperidine-1-carbonyl)phenyl)piperazine-1-carboxylate] |  | 100 to 1000 | inhibition at 10 µM (Lp-PLA2): 75%
O=C(ON1C(=O)N[C@@H](Cc2ccccc2)C1=O)N1CCCN(c2cccc(C(=O)N3CCCCC3)c2Cl)CC1 [Example 21, (S)-4-benzyl-2,5-dioxoimidazolidin-1-yl 4-(2-chloro-3-(piperidine-1-carbonyl)phenyl)-1,4-diazepane-1-carboxylate] |  |  | inhibition at 10 µM (Lp-PLA2): 100%; inhibition at 10 µM (ABHD6; at 10 μM): 100%
CC(C)[C@H]1NC(=O)N(OC(=O)N2CCN(c3cccc(C(=O)N4CCOCC4)c3Cl)CC2)C1=O [Example 6, (R)-4-isopropyl-2,5-dioxoimidazolidin-1-yl 4-(2-chloro-3-(morpholine-4-carbonyl)phenyl)piperazine-1-carboxylate] |  | 100 to 1000 | inhibition at 10 µM (Lp-PLA2): 75%
O=C(ON1C(=O)N[C@@H](Cc2ccccc2)C1=O)N1CCN(c2cccc(C(=O)N3CCCCC3)c2Cl)CC1 [Example 8, (S)-4-benzyl-2,5-dioxoimidazolidin-1-yl 4-(2-chloro-3-(piperidine-1-carbonyl)phenyl)piperazine-1-carboxylate] | < 100 | 100 to 1000 | 
O=C(ON1C(=O)N[C@H](Cc2ccccc2)C1=O)N1CCN(c2cccc(C(=O)N3CCCC3)c2Cl)CC1 [Example 10, (R)-4-benzyl-2,5-dioxoimidazolidin-1-yl 4-(2-chloro-3-(pyrrolidine-1-carbonyl)phenyl)piperazine-1-carboxylate] | < 100 | < 100 | 
CC(C)[C@@H]1NC(=O)N(OC(=O)N2CCN(c3cccc(C(=O)N4CCCC4)c3Cl)CC2)C1=O [Example 1, (S)-4-isopropyl-2,5-dioxoimidazolidin-1-yl 4-(2-chloro-3-(pyrrolidine-1-carbonyl)phenyl)piperazine-1-carboxylate] | 100 to 1000 | < 100 | 

Second part, led by results:

IC50 (Lp-PLA2) [nM] | IC50 (ABHD6) [nM] | SMILES | further results
< 100 | < 100 | O=C(ON1C(=O)N[C@@H](Cc2ccccc2)C1=O)N1CCN(c2cc(C(=O)N3CCCCC3)ccc2Cl)CC1 [Example 17, (S)-4-benzyl-2,5-dioxoimidazolidin-1-yl 4-(2-chloro-5-(piperidine-1-carbonyl)phenyl)piperazine-1-carboxylate] | 
< 100 | < 100 | O=C(ON1C(=O)N[C@@H](Cc2ccccc2)C1=O)N1CCN(c2ccc(C(=O)N3CCCCC3)cc2Cl)CC1 [Example 15, (S)-4-benzyl-2,5-dioxoimidazolidin-1-yl 4-(2-chloro-4-(piperidine-1-carbonyl)phenyl)piperazine-1-carboxylate] | 
< 100 | < 100 | CN1CCN(C(=O)c2cccc(N3CCN(C(=O)ON4C(=O)N[C@@H](Cc5ccccc5)C4=O)CC3)c2Cl)CC1 [Example 14, (S)-4-benzyl-2,5-dioxoimidazolidin-1-yl 4-(2-chloro-3-(4-methylpiperazine-1-carbonyl)phenyl)piperazine-1-carboxylate] | 
< 100 | < 100 | COc1ccc(C[C@@H]2NC(=O)N(OC(=O)N3CCN(c4cccc(C(=O)N5CCCCC5)c4Cl)CC3)C2=O)cc1 [Example 24, (S)-4-(4-methoxybenzyl)-2,5-dioxoimidazolidin-1-yl 4-(2-chloro-3-(piperidine-1-carbonyl)phenyl)piperazine-1-carboxylate] | 
> 1000 | > 1000 | O=C(O)c1cccc(N2CCN(C(=O)ON3C(=O)N[C@@H](Cc4ccccc4)C3=O)CC2)c1Cl [Example 19, (S)-3-(4-((4-benzyl-2,5-dioxoimidazolidin-1-yloxy)carbonyl)piperazin-1-yl)-2-chlorobenzoic acid] | 
< 100 | < 100 | CN1C(=O)N(OC(=O)N2CCN(c3cccc(C(=O)N4CCCCC4)c3Cl)CC2)C(=O)[C@@H]1Cc1ccccc1 [Example 20, (S)-4-benzyl-3-methyl-2,5-dioxoimidazolidin-1-yl 4-(2-chloro-3-(piperidine-1-carbonyl)phenyl)piperazine-1-carboxylate] | 
< 100 | < 100 | O=C(ON1C(=O)N[C@@H](Cc2ccc(C(F)(F)F)cc2)C1=O)N1CCN(c2cccc(C(=O)N3CCCCC3)c2Cl)CC1 [Example 22, (S)-2,5-dioxo-4-(4-(trifluoromethyl)benzyl)imidazolidin-1-yl 4-(2-chloro-3-(piperidine-1-carbonyl)phenyl)piperazine-1-carboxylate] | 
< 100 | < 100 | CN(C)C(=O)c1cccc(N2CCN(C(=O)ON3C(=O)N[C@@H](Cc4ccccc4)C3=O)CC2)c1Cl [Example 16, (S)-4-benzyl-2,5-dioxoimidazolidin-1-yl 4-(2-chloro-3-(dimethylcarbamoyl)phenyl)piperazine-1-carboxylate] | 
< 100 | < 100 | O=C(ON1C(=O)N[C@H](Cc2ccccc2)C1=O)N1CCN(c2cccc(C(=O)N3CCOCC3)c2Cl)CC1 [Example 12, (R)-4-benzyl-2,5-dioxoimidazolidin-1-yl 4-(2-chloro-3-(morpholine-4-carbonyl)phenyl)piperazine-1-carboxylate] | 
< 100 | < 100 | O=C(ON1C(=O)N[C@@H](Cc2ccccc2)C1=O)N1CCN(c2cccc(C(=O)N3CCCCC3)c2)CC1 [Example 13, (S)-4-benzyl-2,5-dioxoimidazolidin-1-yl 4-(3-(piperidine-1-carbonyl)phenyl)piperazine-1-carboxylate] | 
